# Laboratory results reported in US20160051493A1, “METHODS OF TREATMENT OF KERATINOCYTE-DERIVED LESIONS” (THE TRUSTEES OF COLUMBIA UNIVERSITY IN THE CITY OF NEW YORK, priority 2012, published 2016).
# Entries after “also recorded” stand apart in the source; their conditions may differ.
# Experiments:
# [1] = cited from earlier work
# SCC-39 cells = assay: Live-cell calcium imaging of SCC cell line SCC-39; format: cell-based, human; settings: 10 mM camphor; compared with SCC-13 cells
# Method: (§1) Human keratinocytes and SCC cells were washed in Ringer's solution (in mM: NaCl 140, KCl 5, D-glucose 10, HEPES 10, CaCl2 2, MgCl2 2, pH 7.2) and loaded with 5 μM fura-2AM and 1 μM pluronic (Invitrogen) for 30 minutes in the dark. During live-cell imaging, saturating concentrations of TRP agonists (10 mM Camphor, 100 μM 2-APB 1 μM Capsaicin, 300 μM Mustard oil or 3 μM 4αPDD) in Ringer's were used. Cells were imaged for 20 s to establish a baseline and then acutely treated with each agonist for 60 seconds. Imaging was performed on an Olympus IX81 microscope with a 20× (NA 0.17) objective and a Hamamatsu ORCA-R2 camera. 340- and 380-nm excitation and 540-nm emission filters were used to capture fura-2 fluorescence. Data are expressed as a ratio of fluorescent signals (340/380). All data acquisition was performed in MetaFluor. Data analysis was performed with custom algorithms in IgorPro. Cells with baseline levels ±2 SD above the mean were excluded from analysis as unhealthy. Responders were designated as cells whose 340/380 ratio was ≧20% above baseline.
# (§2) Moreover, their responses to camphor mirror their respective levels of TRP channel expression.
# keratin 10 (K10) = assay: Western blot of keratin 10 in epidermal lysates after topical camphor; format: in vivo, FVB mice; settings: 5 days
# Method: To determine whether topical camphor treatment promotes keratinocyte differentiation in vivo, a separate cohort of adult female FVB mice were treated twice daily for a period of 5 days with increasing concentrations of topical camphor (0, 15%, 20% or 30% (wt/wt) camphor in acetone; N=3-4 mice per group). One day after the final topical dose, mice were sacrificed and epidermal lysates were prepared for immunoblot analysis according to standard protocols (Owens et al., J. Invest. Dermatol. 1996). […] Protein levels were detected by peroxidase activated luminol exposure to X-ray film and estimated by densitometry using NIH-Image J software. Levels of K10 were normalized to levels of beta-tubulin for each sample; therefore, data are expressed as the ratio of K10 to beta-tubulin (K10/beta-tubulin). […]
# To determine whether topical camphor treatment promotes keratinocyte differentiation in vivo, adult female FVB mice (n=3-4 per group) were treated twice daily for a period of 5 days with increasing concentrations of topical camphor (15%, 20% or 30% (wt/wt)) or vehicle only. […] It was determined that topical camphor treatment upregulates levels of a keratinocyte terminal differentiation marker in vivo.
# TRPA1 = settings: Inhibition; read-out: Effective concentration IC50; cited from earlier work
# [2] = tested on: normal human keratinocytes; assay: Keratinocyte cell counts (DAPI), morphology and EdU proliferation assay after 24 h treatment; settings: 24 hours
# Method: (§3) Normal human keratinocytes were isolated from human foreskins by undergoing two enzymatic dissociation steps, first in dispase then in trypsin. Cells were cultured in EpiLife supplemented with human keratinocyte growth supplement (HKGS; Invitrogen). For all experiments with undifferentiated cells, keratinocytes were harvested or images at ˜75% confluency. Differentiation was induced by adding CaCl2 to the EpiLife media to reach a final [Ca2+] of 1.2 mM. Cells were typically cultured for 3 days under differentiation conditions before they were assayed. Keratinocytes were cultured for <5 passages. Purified Camphor (CAS #76-22-2), 2-APB (Tocris) or vehicle (1% EtOH)-containing media were used as indicated.
# Cells were treated with 2-APB or camphor for 24 hours at 37° C., exposed to EdU for 45 min, fixed and stained with DAPI for cell counting. EdU Click-It assays (Invitrogen) were used to assess cell-cycle entry. The cells were then fixed and stained with DAPI. Three fields per well were assayed via a 20× objective and there were 4 wells per treatment in each experiment. EdU=5-ethynyl-2′-deoxyuridine.
# As Ca^2+ triggers the commitment switch from proliferation to differentiation in keratinocytes, it was reasoned that increasing intracellular calcium by incubating keratinocytes in TRP agonists might be sufficient to induce this cell-fate switch in low-calcium growth media. To test this hypothesis, normal human keratinocytes were cultured for 24 hours under low-Ca^2+ conditions in the presence of low (12.5 μM), half-maximal (50 μM) and saturating (100 μM) concentrations of 2-APB (FIG. 3A) or camphor (0-8 mM) (FIG. 3E). These TRP agonists were chosen because they reliably elicited intracellular calcium signaling in normal human keratinocytes (FIG. 1A-1E).
# As camphor can activate both TRPV3 and TRPV1 channels, these experiments were repeated in the presence of a specific TRPV1 antagonist, AMG-9810 (Gavva et al., 2005).
# [3] = cited from earlier work; remark: listed apart in the source
# [4] = cited from earlier work; remark: listed apart in the source
# TRPV1 = TRPV1 (Rattus norvegicus, UniProt O35433); settings: Activation; cited from earlier work
# Chain of TRPV1 (O35433 whole entry): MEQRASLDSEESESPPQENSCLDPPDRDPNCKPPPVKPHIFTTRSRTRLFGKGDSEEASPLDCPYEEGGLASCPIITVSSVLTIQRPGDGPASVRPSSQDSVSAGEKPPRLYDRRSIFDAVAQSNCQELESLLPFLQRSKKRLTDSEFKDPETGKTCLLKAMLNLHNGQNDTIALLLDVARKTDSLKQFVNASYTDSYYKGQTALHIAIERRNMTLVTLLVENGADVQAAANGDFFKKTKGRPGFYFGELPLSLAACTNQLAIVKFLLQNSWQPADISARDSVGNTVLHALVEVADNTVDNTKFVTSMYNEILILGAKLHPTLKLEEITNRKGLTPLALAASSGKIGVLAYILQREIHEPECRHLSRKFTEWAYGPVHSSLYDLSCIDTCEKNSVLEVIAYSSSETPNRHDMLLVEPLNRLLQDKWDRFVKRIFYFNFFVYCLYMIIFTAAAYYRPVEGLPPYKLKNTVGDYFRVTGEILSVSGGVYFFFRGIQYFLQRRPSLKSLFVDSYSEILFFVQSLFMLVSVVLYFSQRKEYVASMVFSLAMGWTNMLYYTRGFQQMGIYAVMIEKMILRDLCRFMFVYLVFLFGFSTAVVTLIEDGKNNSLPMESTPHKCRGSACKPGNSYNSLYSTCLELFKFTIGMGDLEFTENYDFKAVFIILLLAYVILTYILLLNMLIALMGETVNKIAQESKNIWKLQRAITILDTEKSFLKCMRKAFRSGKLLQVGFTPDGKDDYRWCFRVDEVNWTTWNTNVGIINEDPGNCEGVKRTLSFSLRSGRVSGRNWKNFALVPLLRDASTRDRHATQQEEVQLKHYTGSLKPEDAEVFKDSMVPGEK
# TRPV3 = settings: Activation; cited from earlier work
# SCC-13 cells = assay: Live-cell calcium imaging of SCC cell line SCC-13; format: cell-based, human; settings: 10 mM camphor; compared with proliferating keratinocytes
# Method: as §1, §2
# [5] = tested on: normal human epidermal keratinocytes; assay: Ratiometric fura-2 live-cell calcium imaging of keratinocytes; format: cell-based
# Method: as §3, §1
# TRP channels are selectively activated by endogenous and exogenous ligands at micromolar to millimolar concentrations. Since TRP channel activity increases over this range to allow graded Ca^2+ influx, receptor activity levels can be monitored by live-cell Ca^2+ imaging. A ratiometric calcium indicator (Fura-2) was employed to determine whether a panel of TRP-channel agonists elicited cytoplasmic calcium increases in human epidermal keratinocytes. (FIG. 1A-1E, FIG. 2A-2B, and Table 3).
# Normal human keratinocytes were cultured in low-calcium media to promote proliferation or in 1.2-mM calcium media to induce differentiation. For live-cell imaging, keratinocytes were then washed and bathed in Ringer's solution containing 2 mM calcium so that calcium signals could be directly compared between cell populations.
# In keratinocytes, increased intracellular calcium stimulates the terminal differentiation process. To determine whether camphor oil and its abundant constituents are directly bioactive on epithelial keratinocytes, a ratiometric Ca2+ indictor (Fura-2) was employed to test whether a panel of terpenes elicited cytoplasmic Ca2+ increases in undifferentiated human epidermal keratinocytes (FIG. 19A-19C). Keratinocytes were cultured according to our standard methods. For live-cell imaging, keratinocytes were bathed in Ringer's solution containing 2 mM Ca2+.
# skin tumors = settings: mouse, in vivo; cited from earlier work
# DNA = settings: cited from earlier work
Structure (SMILES),"sensation on skin of volunteers ([1]; 20% solution in alcohol, normal skin temperatures (Green 1990))",doses reported to cause skin irritation as well as toxicity when ingested ([1]; in vivo) [%],camphor-evoked calcium responses (SCC-39 cells),"expression of K10 (keratin 10 (K10); 15%, 20% or 30% (wt/wt) topical twice daily)",K10 protein levels (K10/beta-tubulin) versus lower concentrations or vehicle (keratin 10 (K10); 30% (wt/wt) topical twice daily),IC50 (TRPA1) [µM],concentration that arrests proliferation without inducing necrotic changes [2] [mM],absorption ([3]; after inhalation or dermal exposure (Baselt and Cravey 1990)),plasma concentrations ([3]; low-dose (46.80 mg) dermal application (Martin et al. 2004)),solubility in water [4],Effective concentration Range (TRPV1),Effective concentration Range (TRPV3),camphor-evoked cytoplasmic calcium signals (SCC-13 cells),"proportion of cells showing Ca2+ increases, differentiated versus proliferating keratinocytes ([5]; 10 mM camphor) [fold]","% Responders (differentiated) Mean ± SEM ([5]; differentiated in 1.2 mM Ca2+, responders F340:F380 increase ≧20%, 4αPDD 3 μM, camphor 10 mM, 2-APB 100 μM) [%]","magnitude of camphor-evoked responses, increase over baseline ([5]; differentiated keratinocytes) [%]","magnitude of camphor-evoked responses, increase over baseline ([5]; growth conditions) [%]","% Responders (undifferentiated) Mean ± SEM or SD ([5]; growth conditions, responders F340:F380 increase ≧20%, saturating agonist (4αPDD 3 μM, camphor 10 mM, 2-APB 100 μM, capsaicin 1 μM, mustard oil 300 μM), SD for capsaicin and mustard oil) [%]",Results of safety: against skin tumors in mice (skin tumors),Results of safety: DNA defects (DNA)
"CC12CCC(CC1=O)C2(C)C (racemic) [Camphor, 1,7,7 Trimethylbicyclo[2.2.1]heptan-2-one]",no significant sensation of irritation or pain,> 20,significantly fewer,increased with camphor treatment in a dose-dependent manner; also recorded: upregulates,significantly higher,68,4 to 8,well absorbed,low plasma concentrations,slightly soluble,Range = 1-10 mM,Range = 2-10 mM,increased,5.7,37.5 ± 15.7,78±1,55±1,6.5 ± 2.8,,
Nc1ccc(C(=O)O)cc1 [p-Aminobenzoic acid],,,,,,,,,,,,,,,,,,,Protects,increase
